Results from patent US20100087475A1, “PHARMACEUTICAL COMPOUNDS” (Biovali Laboratories International (Barbados) S.R.L., priority 2008, published 2010).

What was measured:
Details in all cases: compound at 10 μM
Dopamine D2L Receptor = molecular target: T1, Dopamine D2L Receptor (Homo sapiens, UniProt P14416); test: Radioligand binding, [3H] Spiperone
T1 construct: expressed in transfected cells; host or cells: CHO cells
Method: (§1) Compounds of the invention were subjected to specific binding assays to test their ability to bind to the receptors and transporter proteins described below.
(e) Dopamine D2L Receptor:
(§2) • Reference: Grandy et al., Proc. Natl. Acad. Sci. USA, 86:9762-9766 (1989) • Source: Human recombinant CHO cells • Ligand: 0.16 nM [^3H]

Dopamine D4.2 Receptor = molecular target: T2, Dopamine D4.2 Receptor (Homo sapiens, UniProt P21917, DEL265-296); test: Radioligand binding, [3H] Spiperone
T2 construct: expressed in transfected cells; host or cells: CHO-K1 cells
T2 sequence (P21917 with tags, fused parts or gaps DEL265-296): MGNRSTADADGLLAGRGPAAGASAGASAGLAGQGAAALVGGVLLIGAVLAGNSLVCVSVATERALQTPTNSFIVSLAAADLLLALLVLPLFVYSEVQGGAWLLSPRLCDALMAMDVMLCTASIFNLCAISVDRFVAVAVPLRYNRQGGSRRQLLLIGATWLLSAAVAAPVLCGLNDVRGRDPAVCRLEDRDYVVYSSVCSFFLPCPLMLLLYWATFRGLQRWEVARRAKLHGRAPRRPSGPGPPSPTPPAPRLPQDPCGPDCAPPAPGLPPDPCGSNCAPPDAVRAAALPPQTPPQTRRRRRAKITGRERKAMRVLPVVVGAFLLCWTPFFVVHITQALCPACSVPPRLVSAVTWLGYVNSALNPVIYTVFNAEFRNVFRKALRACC
Method: as §1
(h) Dopamine D4.2 Receptor:
• Reference: Van Tol et al., Nature, 350:610-614 (1991) • Source: Human recombinant CHO-K1 cells • Ligand: 0.5 nM [^3H]

Dopamine D4.7 Receptor = test: Radioligand binding, [3H] Spiperone; parameters: species or system Human
Method: as §1
(j) Dopamine D4.7 Receptor:
• Reference: Van Tol et al., Nature, 350:610-614 (1991) • Source: Human recombinant CHO-K1 cells • Ligand: 1.5 nM [^3H]

Sigma σ2 Receptor = molecular target: T3, Sigma σ2 Receptor (Rattus norvegicus, UniProt Q5U3Y7); test: Radioligand binding, [3H] Ifenprodil, brain; parameters: species or system Wistar rat
T3 construct: Source: Wistar rat brain; from tissue; host or cells: Wistar rat brain
T3 sequence (Q5U3Y7 1-176): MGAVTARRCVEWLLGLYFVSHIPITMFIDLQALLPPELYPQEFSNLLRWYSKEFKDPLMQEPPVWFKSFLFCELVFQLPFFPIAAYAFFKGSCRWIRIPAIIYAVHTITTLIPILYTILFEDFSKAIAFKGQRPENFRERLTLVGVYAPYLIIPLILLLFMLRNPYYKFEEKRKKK
Method: as §1
• Reference: Hashimoto et al., Eur. J. Pharmacol., 236:159-163, (1993) • Source: Wistar rat brain • Ligand: 3 nM [3H] Ifenprodil • Vehicle: 1% DMSO • Incubation time/Temp: 60 minutes @ 37° C. • Incubation buffer: 50 mM Tris-HCl, pH 7.4 • Non Specific ligand: 10 μM Ifenprodil • Kd: 4.8 nM • Bmax: 1.3 pmole/mg protein • Specific binding: 85% • Quantitation method: Radioligand binding • Significance criteria: ≧50% of maximum stimulation or inhibition

Dopamine D3 Receptor = molecular target: T4, Dopamine D3 Receptor (Homo sapiens, UniProt P35462); test: Radioligand binding, [3H] Spiperone
T4 construct: expressed in transfected cells; host or cells: CHO cells
T4 sequence (P35462 whole entry): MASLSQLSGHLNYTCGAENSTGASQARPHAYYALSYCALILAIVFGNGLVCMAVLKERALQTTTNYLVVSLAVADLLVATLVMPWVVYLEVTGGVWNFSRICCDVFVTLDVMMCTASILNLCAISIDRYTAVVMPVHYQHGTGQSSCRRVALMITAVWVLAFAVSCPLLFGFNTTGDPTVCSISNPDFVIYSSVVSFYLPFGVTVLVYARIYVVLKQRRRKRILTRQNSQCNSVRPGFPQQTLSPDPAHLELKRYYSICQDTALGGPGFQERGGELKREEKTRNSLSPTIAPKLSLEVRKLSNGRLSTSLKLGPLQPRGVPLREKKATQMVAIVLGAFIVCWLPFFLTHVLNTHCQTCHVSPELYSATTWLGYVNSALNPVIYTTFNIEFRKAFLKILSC
Method: as §1
(g) Dopamine D3 Receptor:
• Reference: Sokoloff et al., Nature, 347:146-151, (1990) • Source: Human recombinant CHO cells • Ligand: 0.7 nM [3H]

[1] = tested on: Imidazoline I2 (Central) Receptor; test: Radioligand binding, [3H] Idazoxan, cerebral cortex; parameters: species or system Wistar rat
Method: as §1
(k) Imidazoline I2 (Central) Receptor:
• Reference: Brown et al., Brit. J. Pharmacol., 99:803-809, (1990) • Source: Wistar rat cerebral cortex • Ligand: 2 nM [^3H]

Dopamine D2S Receptor = molecular target: T5, Dopamine D2S Receptor (Homo sapiens, UniProt P14416); test: Radioligand binding, [3H] Spiperone
T5 construct: expressed in transfected cells; host or cells: CHO cells
T5 sequence (P14416 1-414 isoform P14416-2): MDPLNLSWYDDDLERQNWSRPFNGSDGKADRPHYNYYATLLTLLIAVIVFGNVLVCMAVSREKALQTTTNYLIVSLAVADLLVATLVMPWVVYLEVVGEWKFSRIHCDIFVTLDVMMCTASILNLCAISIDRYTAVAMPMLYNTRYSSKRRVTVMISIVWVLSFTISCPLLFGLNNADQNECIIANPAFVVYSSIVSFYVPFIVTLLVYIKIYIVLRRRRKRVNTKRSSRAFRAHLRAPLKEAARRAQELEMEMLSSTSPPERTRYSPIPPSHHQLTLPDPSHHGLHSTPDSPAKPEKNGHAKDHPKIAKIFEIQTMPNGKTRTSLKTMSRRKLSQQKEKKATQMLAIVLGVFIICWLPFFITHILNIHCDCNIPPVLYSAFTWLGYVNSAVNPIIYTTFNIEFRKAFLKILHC
Method: as §1
(f) Dopamine D2S Receptor:
as §2

Adrenergic α2C Receptor = molecular target: T6, Adrenergic α2C Receptor (Homo sapiens, UniProt P18825); test: Radioligand binding, [3H] MK-912
T6 construct: expressed in transfected cells; host or cells: insect Sf9 cells
T6 sequence (P18825 1-462): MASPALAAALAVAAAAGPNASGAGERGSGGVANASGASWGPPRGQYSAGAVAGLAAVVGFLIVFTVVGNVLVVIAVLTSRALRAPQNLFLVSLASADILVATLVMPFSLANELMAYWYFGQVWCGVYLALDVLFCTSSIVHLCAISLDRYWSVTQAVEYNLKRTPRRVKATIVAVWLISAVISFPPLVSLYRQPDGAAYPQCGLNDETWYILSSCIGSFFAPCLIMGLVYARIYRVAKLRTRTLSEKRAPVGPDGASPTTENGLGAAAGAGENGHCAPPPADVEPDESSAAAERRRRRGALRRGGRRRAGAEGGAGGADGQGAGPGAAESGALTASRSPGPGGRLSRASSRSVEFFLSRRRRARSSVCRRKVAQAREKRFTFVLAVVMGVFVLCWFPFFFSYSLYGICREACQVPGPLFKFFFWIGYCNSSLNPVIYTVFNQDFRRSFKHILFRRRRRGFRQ
Method: as §1
(c) Adrenergic α2C Receptor:
• Reference: S. Uhlçn et al. J. Pharmacol. Exp. Ther., 271:1558-1565 (1994) • Source: Human recombinant insect Sf9 cells • Ligand: 1 nM [^3H]

Dopamine D4.4 Receptor = molecular target: T7, Dopamine D4.4 Receptor (Homo sapiens, UniProt P21917); test: Radioligand binding, [3H] Spiperone
T7 construct: expressed in transfected cells; host or cells: CHO-K1 cells
T7 sequence (P21917 1-419): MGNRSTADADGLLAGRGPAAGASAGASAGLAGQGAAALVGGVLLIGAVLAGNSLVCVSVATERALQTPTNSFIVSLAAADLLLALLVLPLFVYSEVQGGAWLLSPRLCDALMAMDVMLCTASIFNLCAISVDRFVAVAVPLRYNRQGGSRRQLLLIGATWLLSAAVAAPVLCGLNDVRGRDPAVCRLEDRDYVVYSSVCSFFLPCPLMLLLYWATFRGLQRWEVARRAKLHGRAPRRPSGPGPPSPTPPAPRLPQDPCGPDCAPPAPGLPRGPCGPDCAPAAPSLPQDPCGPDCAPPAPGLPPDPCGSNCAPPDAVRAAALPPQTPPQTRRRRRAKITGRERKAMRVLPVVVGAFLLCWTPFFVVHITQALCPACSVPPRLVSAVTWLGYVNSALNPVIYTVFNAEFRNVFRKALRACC
Method: as §1
(i) Dopamine D4.4 Receptor:
• Reference: Van Tol et al., Nature, 350:610-614 (1991) • Source: Human recombinant CHO-K1 cells • Ligand: 1.2 nM [^3H]

T1 sequence (P14416 whole entry): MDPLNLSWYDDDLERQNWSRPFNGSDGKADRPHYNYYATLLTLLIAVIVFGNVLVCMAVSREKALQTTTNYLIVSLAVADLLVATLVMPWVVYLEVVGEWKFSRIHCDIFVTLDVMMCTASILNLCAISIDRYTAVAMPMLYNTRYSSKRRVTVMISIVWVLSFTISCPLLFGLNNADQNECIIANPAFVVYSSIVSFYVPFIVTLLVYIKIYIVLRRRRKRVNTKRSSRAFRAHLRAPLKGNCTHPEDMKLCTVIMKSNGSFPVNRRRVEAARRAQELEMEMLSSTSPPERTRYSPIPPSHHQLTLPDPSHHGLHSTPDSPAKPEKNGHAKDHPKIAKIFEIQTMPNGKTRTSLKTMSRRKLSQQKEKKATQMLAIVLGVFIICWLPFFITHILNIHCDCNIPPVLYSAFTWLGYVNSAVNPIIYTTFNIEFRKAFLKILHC

SMILES | % inhibition, (e) D2L Receptor (Dopamine D2L Receptor) [%] | % inhibition, (h) D4.2 Receptor (Dopamine D4.2 Receptor) [%] | % inhibition, (j) D4.7 Receptor (Dopamine D4.7 Receptor) [%] | inhibition at 10 µM (Sigma σ2 Receptor; read-out: % inhibition, (n) σ2 Receptor) [%] | % inhibition, (g) D3 Receptor (Dopamine D3 Receptor) [%] | % inhibition, (k) I2 Receptor (central) [1] [%] | % inhibition, (f) D2S Receptor (Dopamine D2S Receptor) [%] | % inhibition, (c) α2C Receptor (Adrenergic α2C Receptor) [%] | % inhibition, (i) D4.4 Receptor (Dopamine D4.4 Receptor) [%] | % inhibition, (n) σ2 Receptor (Sigma σ2 Receptor; 10 µM) [%]
COc1cc2c(cc1O)[C@@H]1C[C@@H](O)[C@H](CC(C)C)CN1CC2 (single isomer, unassigned) [(+)-10-desmethyl-γ-dihydrotetrabenazine] | 54 | 55 | 25 | 31 | 65 | 24 | 63 | −7 | 33 | 
COc1cc2c(cc1O)[C@@H]1C[C@@H](O)[C@H](CC(C)C)CN1CC2 (single isomer, unassigned) [(−)-10-desmethyl-γ-dihydrotetrabenazine] | 98 | 90 | 87 |  | 101 | 66 | 98 | 60 | 81 | 32
